Several values for one entry are separate records, joined by “and”; a condition that tells them apart may be missing. Identical values can stand only once. Counter-ions that a name gives are not always drawn. Like-named read-outs stand apart in the source and are kept apart here.
Experiments:
[1] = target: T1, terbium chelate-labeled menin / FITC-MBM1 peptide (Menin/MLL) (Homo sapiens, UniProt O00255, T541A); test: Menin/MLL homogenous time-resolved fluorescence (HTRF) assay; assay type: binding; details: read-out: (2) Menin HTRF assay (IC50 (nM))
T1 construct: Menin (a. a. l-610-6×his tag) was labeled with terbium cryptate as follows
T1 sequence (O00255 with tags, fused parts or gaps T541A): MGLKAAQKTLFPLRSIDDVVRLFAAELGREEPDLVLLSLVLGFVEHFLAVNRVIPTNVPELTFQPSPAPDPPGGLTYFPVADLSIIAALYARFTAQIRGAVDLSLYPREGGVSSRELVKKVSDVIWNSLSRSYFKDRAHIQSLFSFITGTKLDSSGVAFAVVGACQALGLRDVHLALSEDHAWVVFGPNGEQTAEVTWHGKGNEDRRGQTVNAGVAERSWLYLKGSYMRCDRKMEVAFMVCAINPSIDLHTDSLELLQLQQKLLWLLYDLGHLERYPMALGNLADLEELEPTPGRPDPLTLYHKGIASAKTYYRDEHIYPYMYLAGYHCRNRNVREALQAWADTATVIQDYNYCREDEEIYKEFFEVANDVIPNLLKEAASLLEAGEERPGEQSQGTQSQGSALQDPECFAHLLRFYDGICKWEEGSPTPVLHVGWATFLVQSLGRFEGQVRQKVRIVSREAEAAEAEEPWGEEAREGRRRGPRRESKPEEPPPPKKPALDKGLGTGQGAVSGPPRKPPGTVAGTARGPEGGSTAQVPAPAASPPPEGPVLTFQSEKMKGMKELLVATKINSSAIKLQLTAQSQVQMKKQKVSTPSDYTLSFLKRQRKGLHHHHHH
Experimental: 2) Menin/MLL Homogenous Time-Resolved Fluorescence (HTRF) Assay
To an untreated, white 384-well microtiter plate was added 40 nL 200× test compound in DMSO and 4 μL 2× terbium chelate-labeled menin (vide infra for preparation) in assay buffer (40 mM Tris .HCl, pH 7.5, 50 mM NaCl, 1 mM DTT and 0.05% Pluronic F-127). After incubation of test compound and terbium chelate-labeled menin for 5 min at ambient temperature, 4 μL 2×FITC-MBM1 peptide (FITC-P-alanine-SARWRFPARPGT-NH2) in assay buffer was added, the microtiter plate centrifuged at 1000 rpm for 1 min and the assay mixtures incubated for 15 min at ambient temperature. The relative amount of menin ⋅FITC-MBM1 complex present in an assay mixture is determined by measuring the homogenous time-resolved fluorescence (HTRF) of the terbium/FITC donor/acceptor fluorphore pair using a BMG Pherastar plate reader (ex. 337 nm/terbium cm. 490 nm/FITC cm. 520 nm) at ambient temperature. The degree of fluorescence resonance energy transfer (the HTRF value) is expressed as the ratio of the fluorescence emission intensities of the FITC and terbium fluorophores (P^m 520 nm//F^em 490 nm). The final concentrations of reagents in the binding assay are 100 pM terbium chelate-labeled menin, 75 nM FITC-MBM1 peptide and 0.5%) DMSO in assay buffer. Dose-response titrations of test compounds are conducted using an 11 point, three-fold serial dilution scheme, starting typically at 25 μM.
Compound potencies were determined by first calculating % inhibition at each compound concentration according to equation 1: % inhibition=((HC−LC)−(HTRF^compound−LC))/(HC−LC))*100 (Eqn 1)
Where LC and HC are the HTRF values of the assay in the presence or absence of a saturating concentration of a compound that competes with FITC-MBM1 for binding to menin, and HTRF^compound is the measured HTRF value in the presence of the test compound. HC and LC HTRF values represent an average of at least 16 replicates per plate.
Where Bottom and Top are the lower and upper asymptotes of the dose-response curve, respectively, IC50 is the concentration of compound that yields 50% inhibition of signal and h is the Hill coefficient.
Preparation of Terbium cryptate labeling of Menin: Menin (a. a. l-610-6×his tag) was labeled with terbium cryptate as follows. 2 mg of Menin was buffer exchanged into 1× phosphate buffered saline. 16 uM Menin was incubated with 4-fold molar excess NHS-terbium cryptate (Cisbio Bioassays, Bedford, Mass.) for 2 hours at room temperature. The labeled protein was purified away from free label by running the reaction over a Superdex 200 Increase 10/300 GL column at 0.75 ml/min. Peak fractions were collected, aliquoted and frozen at −80° C.

MV-4-1 1 cells (MLL-AF4) = test: Proliferation assay (spheroid-like growth, 8 d, live-cell imaging), MV-4-11; assay type: cell-based, human; details: MV-4-11 cells, absolute IC50 from AUC of confluence, read-out: (3) Spheroid assay MV-4-11 (IC50 (μM))
Experimental: (§1) The anti-proliferative effect of menin/MLL protein/protein interaction inhibitor test compounds was assessed in human leukemia cell lines. The cell lines MV-4-1 1 and MOLM14 harbor MEL translocations and express the MEL fusion proteins MLL-AF4 and MLL-AF9, respectively, as well as the wildtype protein from the second allele. […] K562 was used as a control cell line containing two MLL wildtype alleles in order to exclude compounds that display general cytotoxic effects.
(§2) MV-4-1 1 and MOLM14 were cultured in RPMI-1640 (Sigma Aldrich) supplemented with 10% fetal bovine serum (HyClone), 2 mM L-glutamine (Sigma Aldrich) and 50 μg/ml gentamycin (Gibco). K562 were propagated in RPMI-1640 (Sigma Aldrich) supplemented with 20% fetal bovine serum (HyClone), 2 mM L-glutamine (Sigma Aldrich) and 50 μg/ml gentamycin (Gibco).
(§3) In order to assess the anti-proliferative effects, 1,500 MV-4-1 1, 300 MOLM14 or 750 K562 cells were seeded in 200 μl media per well in 96-well round bottom, ultra-low attachment plates (Costar, catalogue number 7007). Cell seeding numbers were chosen based on growth curves to ensure linear growth throughout the experiment. Test compounds were added at different concentrations and the DMSO content was normalized to 0.3%>. Cells were incubated for 8d at 37° C. and 5% C02. Spheroid like growth was monitored in real-time by live-cell imaging (IncuCyteZOOM, Essenbio, 4× objective) acquiring one image every four hours for 8d. Confluence (%) as a measure of spheroid size was determined using an integrated analysis tool.
(§4) In order to determine the cumulative effect of the test compounds over time, the area under the curve (AUC) in a plot of confluence against time was calculated. Confluence at the beginning of the experiment (t=0) was used as baseline for the AUC calculation.
(§5) Absolute IC50 values were calculated according to the following procedure: % Control=(AUC sample/AUC control)*100 AUC control=mean AUC of control values(cells without compound/DMSO as vehicle control)
(§6) A non-linear curve fit was applied using the least squares (ordinary) fit method to the plot of % control versus compound concentration. Based on this, the absolute IC50 value (half maximal inhibitory concentration of the test compound causing an anti-proliferative effect of 50% relative to the vehicle control) was calculated.

MOLM14 cells (MLL-AF9) = test: Proliferation assay (spheroid-like growth, 8 d, live-cell imaging), MOLM14; assay type: cell-based, human; details: Homo sapiens, MOLM-14, 192 h, absolute IC50 from AUC of confluence, read-out: (3) Spheroid assay MOLM14 (IC50 (μM))
Experimental: as §1, §2, §3, §4, §5, §6

Work on `C[C@@H](N[C@@H]1CCCN(c2ncnc3sc(CC(F)(F)F)cc23)CC1)c1cnn(C)c1` (single isomer, unassigned) (as salt: HCl) [Compound 54A] yielded a melting point of 160 °C.

Compound `C[C@H](N[C@@H]1CCCN(c2ncnc3sc(CC(F)(F)F)cc23)CC1)c1cnn(C)c1` (single isomer, unassigned) (as salt: HCl) [Compound 54B] has a melting point of 160 °C.

With `C[C@@H](N[C@H]1CCCN(c2ncnc3sc(CC(F)(F)F)cc23)CC1)c1cnn(C)c1` (single isomer, unassigned) (as salt: HCl) [Compound 54D] the melting point was 160 °C.

With `Fc1ccc(CN[C@@H]2CCCN(c3ncnc4sc(CC(F)(F)F)cc34)CC2)c(F)c1` (single isomer, unassigned) (as salt: hydrochloride) [Compound 7A] the melting point was 176 °C.

With `Fc1ccc(CN[C@H]2CCCN(c3ncnc4sc(CC(F)(F)F)cc34)CC2)c(F)c1` (single isomer, unassigned) (as salt: hydrochloride) [Compound 7B] the melting point was 180 °C.

With `Cc1ccc(CN[C@@H]2CCCN(c3ncnc4sc(CC(F)(F)F)cc34)CC2)c(C)c1` (single isomer, unassigned) (as salt: hydrochloride) [Compound 9A] the melting point was 156 °C.

In the case of `Cc1ccc(CN[C@H]2CCCN(c3ncnc4sc(CC(F)(F)F)cc34)CC2)c(C)c1` (single isomer, unassigned) (as salt: hydrochloride) [Compound 9B], the melting point is reported as 160 °C.

In the case of `CC(C)[C@H](N[C@H]1CCCN(c2ncnc3sc(CC(F)(F)F)cc23)CC1)C1CNC1` (single isomer, unassigned) (as salt: hydrochloride) [Compound 32], the melting point is reported as 190 °C.

For `CC(C)[C@H](NC1CCCN(c2ncnc3sc(CC(F)(F)F)cc23)CC1)C1CNC1` (single isomer, unassigned) (as salt: hydrochloride) [Compound 33], the melting point was 200 °C.

`CC(C)[C@@H](NC1CCCN(c2ncnc3sc(CC(F)(F)F)cc23)CC1)C1CNC1` (single isomer, unassigned) (as salt: hydrochloride) [Compound 34] gave a melting point of 188 °C.

For `CC(C)[C@@H](N[C@@H]1CCCN(c2ncnc3sc(CC(F)(F)F)cc23)CC1)C1CNC1` (single isomer, unassigned) (as salt: hydrochloride) [Compound 35], the melting point was 193 °C.

Work on `CC(C)[C@@H](N[C@H]1CCCN(c2ncnc3sc(CC(F)(F)F)cc23)CC1)C1CNC1` (single isomer, unassigned) (as salt: hydrochloride) [Compound 36] yielded a melting point of 208 °C.

For `CN(C)CCN(Cc1ccccc1)[C@@H]1CCCN(c2ncnc3sc(CC(F)(F)F)cc23)CC1` (single isomer, unassigned) (as salt: hydrochloride) [Compound 57A], the melting point was 150 °C.

With `C[C@H]1CCN(c2ncnc3sc(CC(F)(F)F)cc23)CC[C@H]1NCc1ccccc1` (single isomer, unassigned) (as salt: hydrochloride) [Compound 68A] the melting point was 134 °C and 136 °C.

With `C[C@@H]1CCN(c2ncnc3sc(CC(F)(F)F)cc23)CC[C@@H]1NCc1ccccc1` (single isomer, unassigned) (as salt: hydrochloride) [Compound 68B] the melting point was 150 °C.

For `FC(F)(F)Cc1cc2c(N3CCCC(N4Cc5ccccc5C4)CC3)ncnc2s1` (stereo not shown) [Compound 6], the melting point was 111 °C and 111.41 °C, the IC50 [1] was 60 nM and the IC50 (MV-4-1 1 cells (MLL-AF4); Homo sapiens, MV4-11, 192 h) was 2.2 µM.

`O=C(NC1CCCN(c2ncnc3sc(CC(F)(F)F)cc23)CC1)C1CC2(CC2)CN1` (stereo not shown) [Compound 10B] showed an IC50 [1] of 1320 nM, an IC50 (MV-4-1 1 cells (MLL-AF4); Homo sapiens, MV4-11, 192 h) of 5 µM and an IC50 (MOLM14 cells (MLL-AF9)) of 14.2 µM.

With `CC(C)NC1CCCN(c2ncnc3sc(CC(F)(F)F)cc23)CC1` (stereo not shown) [Compound 12] the melting point was 94 °C and the IC50 [1] was 5790 nM.

Work on `FC(F)(F)Cc1cc2c(N3CCCC(Oc4ccccc4)CC3)ncnc2s1` (stereo not shown) [Compound 15] yielded a melting point of 110 °C and an IC50 [1] of 606 nM.

Work on `Cc1ccc(CNC2CCCN(c3ncnc4sc(CC(F)(F)F)cc34)CC2)cc1` (stereo not shown) [Compound 16] yielded an IC50 [1] of 21 nM, an IC50 (MV-4-1 1 cells (MLL-AF4); Homo sapiens, MV4-11, 192 h) of 0.8 µM and an IC50 (MOLM14 cells (MLL-AF9)) of 4.9 µM.

`OCc1ccccc1CNC1CCCN(c2ncnc3sc(CC(F)(F)F)cc23)CC1` (stereo not shown) [Compound 21] gave an IC50 [1] of 97 nM, an IC50 (MV-4-1 1 cells (MLL-AF4); Homo sapiens, MV4-11, 192 h) of 1 µM and an IC50 (MOLM14 cells (MLL-AF9)) of 6.1 µM.

`COc1ccccc1CNC1CCCN(c2ncnc3sc(CC(F)(F)F)cc23)CC1` (stereo not shown) [Compound 22] showed an IC50 [1] of 78 nM, an IC50 (MV-4-1 1 cells (MLL-AF4); Homo sapiens, MV4-11, 192 h) of 2.5 µM and an IC50 (MOLM14 cells (MLL-AF9)) of 9.9 µM.

`Cc1cccc(CNC2CCCN(c3ncnc4sc(CC(F)(F)F)cc34)CC2)c1` (stereo not shown) [Compound 23] showed an IC50 [1] of 150 nM, an IC50 (MV-4-1 1 cells (MLL-AF4); Homo sapiens, MV4-11, 192 h) of 3.1 µM and an IC50 (MOLM14 cells (MLL-AF9)) of 9.4 µM.

`CC1CN(c2ncnc3sc(CC(F)(F)F)cc23)CCCC1NCc1ccccc1` (stereo not shown) [Compound 67A] showed a melting point of 164 °C, an IC50 [1] of 396 nM and an IC50 (MV-4-1 1 cells (MLL-AF4); Homo sapiens, MV4-11, 192 h) of 3.6 µM.

Compound `CC1CN(c2ncnc3sc(CC(F)(F)F)cc23)CCCC1NCc1ccccc1` (stereo not shown) [Compound 67B] has a melting point of 180 °C, an IC50 [1] of 348 nM and an IC50 (MV-4-1 1 cells (MLL-AF4)) of 3.7 µM.

Work on `CC1CCN(c2ncnc3sc(CC(F)(F)F)cc23)CCC1NCc1ccccc1` (stereo not shown) [Compound 68C] yielded an IC50 [1] of 282 nM, an IC50 (MV-4-1 1 cells (MLL-AF4); Homo sapiens, MV4-11, 192 h) of 4.4 µM and an IC50 (MOLM14 cells (MLL-AF9)) of 7.7 µM.

— patent publication US11530226B2, “Azepane inhibitors of menin-MLL interaction” (Janssen Pharmaceutica NV, priority 2016, dated 2022)
